We go through seven compounds from ChEMBL document CHEMBL1131152, “In vitro and in vivo activities of oligodeoxynucleotide-based thrombin inhibitors containing neutral formacetal linkages” (J Med Chem, 1998).

For the experiment, the target named is Prothrombin (Homo sapiens) (UniProt P00734). Kind of experiment: Relative prothrombin time was determined as the activity of the test ODN (oligodeoxynucleotide) relative to that of GS-522.
Compound `Cc1cn([C@H]2C[C@H](OP(=O)(O)OC[C@H]3O[C@@H](n4cc(C)c(=O)[nH]c4=O)C[C@@H]3OP(=O)(O)OC[C@H]3O[C@@H](n4cnc5c(=O)[nH]c(=N)[nH]c54)C[C@@H]3OP(=O)(O)OC[C@H]3O[C@@H](n4cnc5c(=O)nc(N)[nH]c54)C[C@@H]3O)[C@@H](COCO[C@H]3C[C@H](n4cnc5c(=O)[nH]c(=N)[nH]c54)O[C@@H]3COP(=O)(O)O[C@H]3C[C@H](n4cnc5c(=O)nc(N)[nH]c54)O[C@@H]3COP(=O)(O)O[C@H]3C[C@H](n4cc(C)c(=O)[nH]c4=O)O[C@@H]3COP(=O)(O)O[C@H]3C[C@H](n4cnc5c(=O)nc(N)[nH]c54)O[C@@H]3COP(=O)(O)O[C@H]3C[C@H](n4cc(C)c(=O)[nH]c4=O)O[C@@H]3COP(=O)(O)O[C@H]3C[C@H](n4cnc5c(=O)[nH]c(=N)[nH]c54)O[C@@H]3COP(=O)(O)O[C@H]3C[C@H](n4cnc5c(=O)nc(N)[nH]c54)O[C@@H]3COP(=O)(O)O[C@H]3C[C@H](n4cc(C)c(=O)[nH]c4=O)O[C@@H]3COP(=O)(O)O[C@H]3C[C@H](n4cc(C)c(=O)[nH]c4=O)O[C@@H]3COP(=O)(O)O[C@H]3C[C@H](n4cnc5c(=O)[nH]c(=N)[nH]c54)O[C@@H]3COP(=O)(O)O[C@H]3C[C@H](n4cnc5c(=O)nc(N)[nH]c54)O[C@@H]3COP(=O)(O)O)O2)c(=O)[nH]c1=O` had a Relative PT of 0.8.

`Cc1cn([C@H]2C[C@H](OCOC[C@H]3O[C@@H](n4cnc5c(=O)nc(N)[nH]c54)C[C@@H]3OP(=O)(O)OC[C@H]3O[C@@H](n4cnc5c(=O)[nH]c(=N)[nH]c54)C[C@@H]3OP(=O)(O)OC[C@H]3O[C@@H](n4cc(C)c(=O)[nH]c4=O)C[C@@H]3OCOC[C@H]3O[C@@H](n4cc(C)c(=O)[nH]c4=O)C[C@@H]3OP(=O)(O)OC[C@H]3O[C@@H](n4cnc5c(=O)[nH]c(=N)[nH]c54)C[C@@H]3OP(=O)(O)OC[C@H]3O[C@@H](n4cnc5c(=O)nc(N)[nH]c54)C[C@@H]3O)[C@@H](COP(=O)(O)O[C@H]3C[C@H](n4cnc5c(=O)nc(N)[nH]c54)O[C@@H]3COCO[C@H]3C[C@H](n4cc(C)c(=O)[nH]c4=O)O[C@@H]3COP(=O)(O)O[C@H]3C[C@H](n4cnc5c(=O)[nH]c(=N)[nH]c54)O[C@@H]3COP(=O)(O)O[C@H]3C[C@H](n4cnc5c(=O)nc(N)[nH]c54)O[C@@H]3COP(=O)(O)O[C@H]3C[C@H](n4cc(C)c(=O)[nH]c4=O)O[C@@H]3COCO[C@H]3C[C@H](n4cc(C)c(=O)[nH]c4=O)O[C@@H]3COP(=O)(O)O[C@H]3C[C@H](n4cnc5c(=O)[nH]c(=N)[nH]c54)O[C@@H]3COP(=O)(O)O[C@H]3C[C@H](n4cnc5c(=O)nc(N)[nH]c54)O[C@@H]3COP(=O)(O)O)O2)c(=O)[nH]c1=O` showed a Relative PT of 0.5.

`Cc1cn([C@H]2C[C@H](OP(=O)(O)OC[C@H]3O[C@@H](n4cnc5c(=O)nc(N)[nH]c54)C[C@@H]3OCOC[C@H]3O[C@@H](n4cnc5c(=O)[nH]c(=N)[nH]c54)C[C@@H]3OP(=O)(O)OC[C@H]3O[C@@H](n4cc(C)c(=O)[nH]c4=O)C[C@@H]3OP(=O)(O)OC[C@H]3O[C@@H](n4cnc5c(=O)[nH]c(=N)[nH]c54)C[C@@H]3OP(=O)(O)OC[C@H]3O[C@@H](n4cc(C)c(=O)[nH]c4=O)C[C@@H]3OP(=O)(O)OC[C@H]3O[C@@H](n4cnc5c(=O)nc(N)[nH]c54)C[C@@H]3OCOC[C@H]3O[C@@H](n4cnc5c(=O)[nH]c(=N)[nH]c54)C[C@@H]3OP(=O)(O)OC[C@H]3O[C@@H](n4cc(C)c(=O)[nH]c4=O)C[C@@H]3OP(=O)(O)OC[C@H]3O[C@@H](n4cc(C)c(=O)[nH]c4=O)C[C@@H]3OP(=O)(O)OC[C@H]3O[C@@H](n4cnc5c(=O)[nH]c(=N)[nH]c54)C[C@@H]3OP(=O)(O)OC[C@H]3O[C@@H](n4cnc5c(=O)nc(N)[nH]c54)C[C@@H]3O)[C@@H](COP(=O)(O)O[C@H]3C[C@H](n4cc(C)c(=O)[nH]c4=O)O[C@@H]3COP(=O)(O)O[C@H]3C[C@H](n4cnc5c(=O)nc(N)[nH]c54)O[C@@H]3COP(=O)(O)O[C@H]3C[C@H](n4cnc5c(=O)[nH]c(=N)[nH]c54)O[C@@H]3COP(=O)(O)O)O2)c(=O)[nH]c1=O` had a Relative PT of 0.6.

For the compound `Cc1cn([C@H]2C[C@H](OP(=O)(O)OC[C@H]3O[C@@H](n4cnc5c(=O)nc(N)[nH]c54)C[C@@H]3OCOC[C@H]3O[C@@H](n4cnc5c(=O)[nH]c(=N)[nH]c54)C[C@@H]3OP(=O)(O)OC[C@H]3O[C@@H](n4cc(C)c(=O)[nH]c4=O)C[C@@H]3OP(=O)(O)OC[C@H]3O[C@@H](n4cnc5c(=O)[nH]c(=N)[nH]c54)C[C@@H]3OP(=O)(O)OC[C@H]3O[C@@H](n4cc(C)c(=O)[nH]c4=O)C[C@@H]3OP(=O)(O)OC[C@H]3O[C@@H](n4cnc5c(=O)nc(N)[nH]c54)C[C@@H]3OP(=O)(O)OC[C@H]3O[C@@H](n4cnc5c(=O)[nH]c(=N)[nH]c54)C[C@@H]3OP(=O)(O)OC[C@H]3O[C@@H](n4cc(C)c(=O)[nH]c4=O)C[C@@H]3OP(=O)(O)OC[C@H]3O[C@@H](n4cc(C)c(=O)[nH]c4=O)C[C@@H]3OP(=O)(O)OC[C@H]3O[C@@H](n4cnc5c(=O)[nH]c(=N)[nH]c54)C[C@@H]3OCOC[C@H]3O[C@@H](n4cnc5c(=O)nc(N)[nH]c54)C[C@@H]3O)[C@@H](COP(=O)(O)O[C@H]3C[C@H](n4cc(C)c(=O)[nH]c4=O)O[C@@H]3COP(=O)(O)O[C@H]3C[C@H](n4cnc5c(=O)nc(N)[nH]c54)O[C@@H]3COP(=O)(O)O[C@H]3C[C@H](n4cnc5c(=O)[nH]c(=N)[nH]c54)O[C@@H]3COP(=O)(O)O)O2)c(=O)[nH]c1=O`, the Relative PT was determined as 0.6.

As for `Cc1cn([C@H]2C[C@H](OCOC[C@H]3O[C@@H](n4cnc5c(=O)nc(N)[nH]c54)C[C@@H]3OP(=O)(O)OC[C@H]3O[C@@H](n4cc(C)c(=O)[nH]c4=O)C[C@@H]3OP(=O)(O)OC[C@H]3O[C@@H](n4cnc5c(=O)nc(N)[nH]c54)C[C@@H]3OP(=O)(O)OC[C@H]3O[C@@H](n4cnc5c(=O)[nH]c(=N)[nH]c54)C[C@@H]3OP(=O)(O)OC[C@H]3O[C@@H](n4cc(C)c(=O)[nH]c4=O)C[C@@H]3OP(=O)(O)OC[C@H]3O[C@@H](n4cc(C)c(=O)[nH]c4=O)C[C@@H]3OP(=O)(O)OC[C@H]3O[C@@H](n4cnc5c(=O)[nH]c(=N)[nH]c54)C[C@@H]3OP(=O)(O)OC[C@H]3O[C@@H](n4cnc5c(=O)nc(N)[nH]c54)C[C@@H]3O)[C@@H](COP(=O)(O)O[C@H]3C[C@H](n4cnc5c(=O)[nH]c(=N)[nH]c54)O[C@@H]3COP(=O)(O)O[C@H]3C[C@H](n4cnc5c(=O)nc(N)[nH]c54)O[C@@H]3COP(=O)(O)O[C@H]3C[C@H](n4cc(C)c(=O)[nH]c4=O)O[C@@H]3COP(=O)(O)O[C@H]3C[C@H](n4cc(C)c(=O)[nH]c4=O)O[C@@H]3COP(=O)(O)O[C@H]3C[C@H](n4cnc5c(=O)nc(N)[nH]c54)O[C@@H]3COP(=O)(O)O[C@H]3C[C@H](n4cnc5c(=O)nc(N)[nH]c54)O[C@@H]3COP(=O)(O)O)O2)c(=O)[nH]c1=O`, the Relative PT worked out at 0.8.

For `Cc1cn([C@H]2C[C@H](OCOC[C@H]3O[C@@H](n4cc(C)c(=O)[nH]c4=O)C[C@@H]3OP(=O)(O)OC[C@H]3O[C@@H](n4cnc5c(=O)[nH]c(=N)[nH]c54)C[C@@H]3OP(=O)(O)OC[C@H]3O[C@@H](n4cnc5c(=O)nc(N)[nH]c54)C[C@@H]3O)[C@@H](COP(=O)(O)O[C@H]3C[C@H](n4cnc5c(=O)[nH]c(=N)[nH]c54)O[C@@H]3COP(=O)(O)O[C@H]3C[C@H](n4cnc5c(=O)nc(N)[nH]c54)O[C@@H]3COP(=O)(O)O[C@H]3C[C@H](n4cc(C)c(=O)[nH]c4=O)O[C@@H]3COP(=O)(O)O[C@H]3C[C@H](n4cnc5c(=O)[nH]c(=N)[nH]c54)O[C@@H]3COP(=O)(O)O[C@H]3C[C@H](n4cc(C)c(=O)[nH]c4=O)O[C@@H]3COP(=O)(O)O[C@H]3C[C@H](n4cnc5c(=O)[nH]c(=N)[nH]c54)O[C@@H]3COP(=O)(O)O[C@H]3C[C@H](n4cnc5c(=O)nc(N)[nH]c54)O[C@@H]3COP(=O)(O)O[C@H]3C[C@H](n4cc(C)c(=O)[nH]c4=O)O[C@@H]3COP(=O)(O)O[C@H]3C[C@H](n4cc(C)c(=O)[nH]c4=O)O[C@@H]3COP(=O)(O)O[C@H]3C[C@H](n4cnc5c(=O)nc(N)[nH]c54)O[C@@H]3COP(=O)(O)O[C@H]3C[C@H](n4cnc5c(=O)nc(N)[nH]c54)O[C@@H]3COP(=O)(O)O)O2)c(=O)[nH]c1=O`, the Relative PT was found to be 1.1.

Regarding `Cc1cn([C@H]2C[C@H](OCOC[C@H]3O[C@@H](n4cnc5c(=O)nc(N)[nH]c54)C[C@@H]3OP(=O)(O)OC[C@H]3O[C@@H](n4cnc5c(=O)[nH]c(=N)[nH]c54)C[C@@H]3OP(=O)(O)OC[C@H]3O[C@@H](n4cc(C)c(=O)[nH]c4=O)C[C@@H]3OCOC[C@H]3O[C@@H](n4cc(C)c(=O)[nH]c4=O)C[C@@H]3OP(=O)(O)OC[C@H]3O[C@@H](n4cnc5c(=O)[nH]c(=N)[nH]c54)C[C@@H]3OP(=O)(O)OC[C@H]3O[C@@H](n4cnc5c(=O)nc(N)[nH]c54)C[C@@H]3O)[C@@H](COP(=O)(O)O[C@H]3C[C@H](n4cnc5c(O)nc(=N)[nH]c54)O[C@@H]3COP(=O)(O)O[C@H]3C[C@H](n4cc(C)c(=O)[nH]c4=O)O[C@@H]3COP(=O)(O)O[C@H]3C[C@H](n4cnc5c(=O)[nH]c(=N)[nH]c54)O[C@@H]3COP(=O)(O)O[C@H]3C[C@H](n4cnc5c(=O)nc(N)[nH]c54)O[C@@H]3COP(=O)(O)O[C@H]3C[C@H](n4cc(C)c(=O)[nH]c4=O)O[C@@H]3COCO[C@H]3C[C@H](n4cc(C)c(=O)[nH]c4=O)O[C@@H]3COP(=O)(O)O[C@H]3C[C@H](n4cnc5c(=O)nc(N)[nH]c54)O[C@@H]3COP(=O)(O)O[C@H]3C[C@H](n4cnc5c(=O)[nH]c(=N)[nH]c54)O[C@@H]3COP(=O)(O)O)O2)c(=O)[nH]c1=O`, the Relative PT turned out to be 1.1.
